Columns and labels:
Assay type in all cases: in vivo
[1] = system: Choristoneura magnanima; assay: Pesticidal test against Choristoneura magnanima (artificial feed dip); details: 144 h, 2-stage larvae, examined after 6 days, 25° C., read-out: pesticidal rate; for pest or weed control at 1 ppm: concentration 1 ppm
Protocol: Pesticidal Test against Choristoneura magnanima A thinly sliced artificial feed was immersed for 30 seconds in a chemical solution in which a test compound had been prepared at a predetermined concentration, and air-dried, and then put into a 7 cm polyethylene cup having a filter paper laid on the bottom thereof, and 2-stage larvae of Choristoneura magnanima were released. They were left to stand in a thermostatic chamber at 25° C., and the numbers of the living pests and the dead pests were examined after 6 days. The test was carried out with five larvae per group in two replicates. Further, the above compound (A) was used as a comparative compound.

[2] = system: Adoxophyes honmai; assay: Pesticidal test against Adoxophyes honmai (artificial feed dip); details: 144 h, 2-stage larvae, examined after 6 days, 25° C., read-out: pesticidal rate; for pest or weed control at 1 ppm: concentration 1 ppm; for pest or weed control at 10 ppm: concentration 10 ppm
Summary of the method: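 Thin artificial feed slices dipped 30 s in test solution at a predetermined concentration, air-dried, then offered to 2nd-stage larvae. Kept at 25° C; live and dead larvae counted after 6 days. Five larvae per group, two replicates.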

[3] = system: Spodoptera litura; assay: Pesticidal test against Spodoptera litura (cabbage leaf dip); details: foliar, 144 h, concentration 1 ppm, 2-stage larvae, examined after 6 days, 25° C., read-out: pesticidal rate
Summary of the method: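 Cabbage leaf pieces dipped 30 seconds in compound solution at a predetermined concentration and air-dried, then offered to second-stage larvae, five per group in two replicates. Held at 25° C. Living and dead larvae counted after 6 days.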

[4] = system: Laodelphax striatellus; assay: Pesticidal test against Laodelphax striatellus (rice seedling spray); details: 144 h, concentration 100 ppm, 3-stage larvae, examined after 6 days, 25° C., read-out: pesticidal rate
Summary of the method: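 Rice seedlings sprayed with 2.5 ml acetone solution of compound at a predetermined concentration, air-dried, then infested with third-stage Laodelphax striatellus larvae in capped water-containing tubes at 25 °C. Living and dead insects counted after 6 days; ten larvae per group, two replicates.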

[5] = system: Helicoverpa armigera; assay: Pesticidal test against Helicoverpa armigera (cabbage leaf disk dip); details: foliar, 72 h, concentration 1 ppm, 2-stage larvae, examined after 3 days, 25° C., read-out: pesticidal rate
Summary of the method: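 Cabbage leaf disks were dipped for 30 s in test solution at a set concentration and air-dried. Second-instar larvae were placed one per hole and held at 25 °C, with live and dead counts taken after 3 days. Five larvae per group were tested in two replicates.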

[6] = system: Musca domestica; assay: Pesticidal test against Musca domestica (petri dish dry film); details: 24 h, concentration 100 ppm, female adults, examined after 1 day, 25° C., read-out: pesticidal rate
Summary of the method: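 Dry film from 1 ml acetone solution of compound at a predetermined concentration, air-dried in a 9 cm petri dish; female adult flies released and dish capped. Held at 25° C; living and dead counted after 1 day. Five insects per group, two replicates.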

[7] = system: Plutella xylostella; assay: Pesticidal test against Plutella xylostella (cabbage leaf dip); details: foliar, 144 h, concentration 1 ppm, 2-stage larvae, examined after 6 days, 25° C., read-out: pesticidal rate
Summary of the method: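 Cabbage leaf pieces dipped 30 s in test solution at a predetermined concentration, air-dried, then offered to 2nd-instar larvae, five per group in duplicate. Held at 25° C; living and dead larvae counted after 6 days.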

O=C(Nc1c(I)cc(C(F)(C(F)(F)F)C(F)(F)C(F)(F)F)cc1I)c1cccc(NC(=O)c2ccccc2F)c1 (stereo not shown) [6-72]
≥ 70%: pest or weed control at 1 ppm [1] | pest or weed control at 1 ppm [2] | pest or weed control at 1 ppm [3] | pest or weed control at 100 ppm [4] | pest or weed control at 1 ppm [5] | pest or weed control at 100 ppm [6] | pest or weed control at 1 ppm [7]

N#Cc1cccc(C(=O)Nc2cccc(C(=O)Nc3c(Br)cc(C(F)(C(F)(F)F)C(F)(F)C(F)(F)F)cc3C(F)(F)F)c2)c1 (stereo not shown) [6-366]
≥ 70%: pest or weed control at 1 ppm [1] | pest or weed control at 1 ppm [2] | pest or weed control at 1 ppm [3] | pest or weed control at 1 ppm [5] | pest or weed control at 100 ppm [6] | pest or weed control at 1 ppm [7]

N#Cc1cccc(C(=O)Nc2cccc(C(=O)Nc3c(Br)cc(C(F)(C(F)(F)F)C(F)(F)C(F)(F)F)cc3C(F)(F)F)c2F)c1 (stereo not shown) [6-1672]
≥ 70%: pest or weed control at 1 ppm [1] | pest or weed control at 1 ppm [2] | pest or weed control at 1 ppm [3] | pest or weed control at 100 ppm [4] | pest or weed control at 1 ppm [5] | pest or weed control at 100 ppm [6] | pest or weed control at 1 ppm [7]

O=C(Nc1cccc(C(=O)Nc2c(Br)cc(C(F)(C(F)(F)F)C(F)(F)C(F)(F)F)cc2C(F)(F)F)c1F)c1ccc(Cl)nc1 (stereo not shown) [6-1695]
≥ 70%: pest or weed control at 1 ppm [1] | pest or weed control at 10 ppm [2] | pest or weed control at 1 ppm [3] | pest or weed control at 100 ppm [4] | pest or weed control at 1 ppm [5] | pest or weed control at 100 ppm [6] | pest or weed control at 1 ppm [7]

O=C(Nc1cccc(C(=O)Nc2c(I)cc(C(F)(C(F)(F)F)C(F)(F)C(F)(F)F)cc2C(F)(F)F)c1F)c1ccccc1F (stereo not shown) [6-1809]
≥ 70%: pest or weed control at 1 ppm [1] | pest or weed control at 1 ppm [2] | pest or weed control at 1 ppm [3] | pest or weed control at 100 ppm [4] | pest or weed control at 1 ppm [5] | pest or weed control at 100 ppm [6] | pest or weed control at 1 ppm [7]

N#Cc1cccc(C(=O)Nc2cccc(C(=O)Nc3c(I)cc(C(F)(C(F)(F)F)C(F)(F)C(F)(F)F)cc3C(F)(F)F)c2F)c1 (stereo not shown) [6-1828]
≥ 70%: pest or weed control at 1 ppm [1] | pest or weed control at 1 ppm [2] | pest or weed control at 1 ppm [3] | pest or weed control at 100 ppm [4] | pest or weed control at 1 ppm [5] | pest or weed control at 100 ppm [6] | pest or weed control at 1 ppm [7]

O=C(Nc1c(I)cc(C(F)(C(F)(F)F)C(F)(F)C(F)(F)F)cc1C(F)(F)F)c1cccc(NC(=O)c2c(F)cccc2F)c1F (stereo not shown) [6-1830]
≥ 70%: pest or weed control at 1 ppm [1] | pest or weed control at 1 ppm [2] | pest or weed control at 1 ppm [3] | pest or weed control at 100 ppm [4] | pest or weed control at 1 ppm [5] | pest or weed control at 100 ppm [6] | pest or weed control at 1 ppm [7]

O=C(Nc1cccc(C(=O)Nc2c(I)cc(C(F)(C(F)(F)F)C(F)(F)C(F)(F)F)cc2C(F)(F)F)c1F)c1ccc(Cl)nc1 (stereo not shown) [6-1851]
≥ 70%: pest or weed control at 1 ppm [1] | pest or weed control at 10 ppm [2] | pest or weed control at 1 ppm [3] | pest or weed control at 100 ppm [4] | pest or weed control at 1 ppm [5] | pest or weed control at 100 ppm [6] | pest or weed control at 1 ppm [7]

O=C(Nc1cccc(C(=O)Nc2c(C(F)(F)F)cc(C(F)(C(F)(F)F)C(F)(F)F)cc2C(F)(F)F)c1F)c1ccccc1 [6-2110, 3-benzamide-2-fluoro-N-(4-(perfluoropropan-2-yl)-2,6-bis(trifluoromethyl)phenyl)benzamide]
≥ 70%: pest or weed control at 10 ppm ([1]; concentration 10 ppm) | pest or weed control at 10 ppm [2] | pest or weed control at 1 ppm [3] | pest or weed control at 100 ppm [4] | pest or weed control at 1 ppm [5] | pest or weed control at 100 ppm [6] | pest or weed control at 1 ppm [7]

CN(C(=O)c1cccc(F)c1)c1cccc(C(=O)Nc2c(Br)cc(C(F)(C(F)(F)F)C(F)(F)C(F)(F)F)cc2C(F)(F)F)c1 (stereo not shown) [7-348]
≥ 70%: pest or weed control at 1 ppm [1] | pest or weed control at 1 ppm [2] | pest or weed control at 1 ppm [3] | pest or weed control at 100 ppm [4] | pest or weed control at 1 ppm [5] | pest or weed control at 100 ppm [6] | pest or weed control at 1 ppm [7]

CN(C(=O)c1cccc(C#N)c1)c1cccc(C(=O)Nc2c(Br)cc(C(F)(C(F)(F)F)C(F)(F)C(F)(F)F)cc2C(F)(F)F)c1 (stereo not shown) [7-366]
≥ 70%: pest or weed control at 1 ppm [1] | pest or weed control at 1 ppm [2] | pest or weed control at 1 ppm [3] | pest or weed control at 1 ppm [5] | pest or weed control at 100 ppm [6] | pest or weed control at 1 ppm [7]

CN(C(=O)c1cccc(C#N)c1)c1cccc(C(=O)Nc2c(I)cc(C(F)(C(F)(F)F)C(F)(F)C(F)(F)F)cc2I)c1F (stereo not shown) [7-1358]
≥ 70%: pest or weed control at 1 ppm [1] | pest or weed control at 1 ppm [2] | pest or weed control at 1 ppm [3] | pest or weed control at 100 ppm [4] | pest or weed control at 1 ppm [5] | pest or weed control at 100 ppm [6] | pest or weed control at 1 ppm [7]

CN(C(=O)c1ccc(F)nc1)c1cccc(C(=O)Nc2c(Br)cc(C(F)(C(F)(F)F)C(F)(F)F)cc2C(F)(F)F)c1F [7-1616]
≥ 70%: pest or weed control at 1 ppm [1] | pest or weed control at 10 ppm [2] | pest or weed control at 1 ppm [3] | pest or weed control at 100 ppm [4] | pest or weed control at 1 ppm [5] | pest or weed control at 1 ppm [7]

CN(C(=O)c1ccccc1)c1cccc(C(=O)Nc2c(Br)cc(C(F)(C(F)(F)F)C(F)(F)C(F)(F)F)cc2C(F)(F)F)c1F (stereo not shown) [7-1652]
≥ 70%: pest or weed control at 1 ppm [1] | pest or weed control at 1 ppm [2] | pest or weed control at 1 ppm [3] | pest or weed control at 100 ppm [4] | pest or weed control at 1 ppm [5] | pest or weed control at 100 ppm [6] | pest or weed control at 1 ppm [7]

CN(C(=O)c1cccnc1)c1cccc(C(=O)Nc2c(I)cc(C(F)(C(F)(F)F)C(F)(F)F)cc2C(F)(F)F)c1F [7-1764]
≥ 70%: pest or weed control at 1 ppm [1] | pest or weed control at 1 ppm [2] | pest or weed control at 1 ppm [3] | pest or weed control at 100 ppm [4] | pest or weed control at 1 ppm [5] | pest or weed control at 100 ppm [6] | pest or weed control at 1 ppm [7]

CN(C(=O)c1ccccc1)c1cccc(C(=O)Nc2c(I)cc(C(F)(C(F)(F)F)C(F)(F)C(F)(F)F)cc2C(F)(F)F)c1F (stereo not shown) [7-1808]
≥ 70%: pest or weed control at 1 ppm [1] | pest or weed control at 1 ppm [2] | pest or weed control at 1 ppm [3] | pest or weed control at 100 ppm [4] | pest or weed control at 1 ppm [5] | pest or weed control at 100 ppm [6] | pest or weed control at 1 ppm [7]

CN(C(=O)c1ccccc1F)c1cccc(C(=O)Nc2c(I)cc(C(F)(C(F)(F)F)C(F)(F)C(F)(F)F)cc2C(F)(F)F)c1F (stereo not shown) [7-1809]
≥ 70%: pest or weed control at 1 ppm [1] | pest or weed control at 1 ppm [2] | pest or weed control at 1 ppm [3] | pest or weed control at 100 ppm [4] | pest or weed control at 1 ppm [5] | pest or weed control at 100 ppm [6] | pest or weed control at 1 ppm [7]

CN(C(=O)c1cccc(F)c1)c1cccc(C(=O)Nc2c(I)cc(C(F)(C(F)(F)F)C(F)(F)C(F)(F)F)cc2C(F)(F)F)c1F (stereo not shown) [7-1810]
≥ 70%: pest or weed control at 1 ppm [1] | pest or weed control at 1 ppm [2] | pest or weed control at 1 ppm [3] | pest or weed control at 100 ppm [4] | pest or weed control at 1 ppm [5] | pest or weed control at 100 ppm [6] | pest or weed control at 1 ppm [7]

CN(C(=O)c1ccc(F)cc1)c1cccc(C(=O)Nc2c(I)cc(C(F)(C(F)(F)F)C(F)(F)C(F)(F)F)cc2C(F)(F)F)c1F (stereo not shown) [7-1811]
≥ 70%: pest or weed control at 1 ppm [1] | pest or weed control at 1 ppm [2] | pest or weed control at 1 ppm [3] | pest or weed control at 100 ppm [4] | pest or weed control at 1 ppm [5] | pest or weed control at 100 ppm [6] | pest or weed control at 1 ppm [7]

Reference: patent US8686044B2, “Amide derivative, pest control agent containing the amide derivative, and use of the amide derivative” (Mitsui Chemicals Agro, Inc., priority 2008, dated 2014)
